Patent EP0639978B1, “PHARMACEUTICAL COMBINATION HAVING ANTINEOPLASTIC ACTIVITY” (priority 1991, dated 1992)
Where a name gives a salt, the structure may show the parent alone.

Legend:
P388 leukemia = assay: Therapeutic activity in P388 leukemia treatment (survival); assay type: in vivo, BDFl female mice; conditions: for ILS (%): survival increase vs untreated controls
Method: The following tables and the enclosed figures refer to experiments carried out on BDFl mice inoculated with P388 leukemic cells and wherein the effect of DDP-Pd.HCl combination is compared, in terms of toxicity and therapeutic efficacy, with the one of the different components. From Pd-HCl toxicity results, which are reported in Table 1, the 50 mg/kg of Pd.HCl dose was selected for the investigations suited for the evaluation of DDP-Pd.HCl combination toxicity and therapeutic efficacy.

[1] = system: kidneys of P388 leukemic BDFl mice; assay: Histological evaluation of renal damage; assay type: in vivo
Method: Stromal connective, wherein rare and scattered fibroblasts were detected, appeared remarkably thickened with resulting intertubular space increase. Renal corpuscle morphology appeared in a good preservation state in the components thereof and a slight increase of the glomerular chamber was recognized in few corpuscles only.
Immediately after withdrawal, renal parenchyma was fixed with 2.5% glutaraldehyde in 0.1 M Na cacodylate buffer (pH = 7.4) for 120 min.
After washing in the same buffer, the samples were dehydrated with ethanol and embedded in Epon 812. LKB Ultratom III microtome 2 µm sections were stained with aqueous 1% toluidine blue.

[2] = DDP 8 mg/kg i.p. days 1 and 5, vehicle H2O
[3] = DDP 16 mg/kg i.p. day 1, vehicle 0,9% NaCl
[4] = DDP 16 mg/kg i.p. day 1, vehicle H2O
[5] = Pd.HCl 50 mg/kg in H2O i.v., no DDP

Row | SMILES | Survivors on day 60 (alive/treated) (P388 leukemia; [2]) | MST (P388 leukemia; DDP 8 mg/kg i.p. days 1 and 5, vehicle H2O, median survival time, untreated controls 12 days) [days] | ILS (%) (P388 leukemia; [2]) | Survivors on day 60 (alive/treated) (P388 leukemia; [3]) | MST (P388 leukemia; DDP 16 mg/kg i.p. day 1, vehicle 0,9% NaCl, median survival time, untreated controls 12 days) [days] | ILS (%) (P388 leukemia; [3]) | Survivors on day 60 (alive/treated) (P388 leukemia; [4]) | MST (P388 leukemia; DDP 16 mg/kg i.p. day 1, vehicle H2O, median survival time, untreated controls 12 days) [days] | ILS (%) (P388 leukemia; [4]) | Hystological evaluation of renal damage ([1]; 8 mg/kg of DDP alone at days 1, 5 and 9, mice killed the 10th day, cortical zone) | MST (P388 leukemia; [5]) [days] | Survivors on day 60 (alive/treated) (P388 leukemia; [5]) | ILS (%) (P388 leukemia; [5]) | antitumor activity (P388 leukemia; procainamide by itself) | Hystological evaluation of renal damage ([1]; mouse, in vivo, 50 mg/kg)
1 | N.N.[Cl][Pt][Cl] [DDP, Cisplatin] | 0/8 | 7 | -42 | 2/10 | 22 | 83 | 0/10 | 5 | -58 | renal parenchyma alterations | – | – | – | – | –
2 | CCN(CC)CCNC(=O)c1ccc(N)cc1 [Pd.HCl, procainamide hydrochloride] | – | – | – | – | – | – | – | – | – | – | 13 | 0/8 | 8,3% | no antitumor activity | a picture similar to the one observed with DDP only
